Experimental data taken from ChEMBL document CHEMBL1649167, “Serial plasma voriconazole concentrations after allogeneic hematopoietic stem cell transplantation” (Antimicrob Agents Chemother, 2009).

Assay: Plasma concentration in po dosed patient after 6 days by HPLC analysis
Type: ADME, organism-based
Conditions: human

C[C@@H](c1ncncc1F)[C@](O)(Cn1cncn1)c1ccc(F)cc1F [VORICONAZOLE]
concentration at 144 h: < 120 ng/mL
